# Columns and labels:
# Assay in all cases: relative viability (nuclei count vs DMSO), 5 days (fraction); higher = more cells survive
# BI-2536 + OSI-027 = compound: CC[C@@H]1C(=O)N(C)c2cnc(Nc3ccc(C(=O)NC4CCN(C)CC4)cc3OC)nc2N1C1CCCC1 [BI-2536] + COc1cccc2cc(-c3nc([C@H]4CC[C@H](C(=O)O)CC4)n4ncnc(N)c34)[nH]c12 [OSI-027] (partner 0.5 µM)
# Outline: (§1)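 Medians of duplicate plates are given as relative viability. That measure is the nuclei count in treated wells divided by the count in vehicle wells. Counts were taken on 4× images of lung cancer cell lines in 1536-well plates, 5 days after pin-tool dosing the day after seeding with one drug alone or a fixed anchor-drug dose plus five library-drug doses (not always all listed) in √10 steps.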
# BI-2536 + Pictilisib = compound: CC[C@@H]1C(=O)N(C)c2cnc(Nc3ccc(C(=O)NC4CCN(C)CC4)cc3OC)nc2N1C1CCCC1 [BI-2536] + CS(=O)(=O)N1CCN(Cc2cc3nc(-c4cccc5[nH]ncc45)nc(N4CCOCC4)c3s2)CC1 [Pictilisib] (partner 1 µM)
# Outline: as §1
# BI-2536 + Navitoclax = compound: CC[C@@H]1C(=O)N(C)c2cnc(Nc3ccc(C(=O)NC4CCN(C)CC4)cc3OC)nc2N1C1CCCC1 [BI-2536] + CC1(C)CCC(c2ccc(Cl)cc2)=C(CN2CCN(c3ccc(C(=O)NS(=O)(=O)c4ccc(N[C@H](CCN5CCOCC5)CSc5ccccc5)c(S(=O)(=O)C(F)(F)F)c4)cc3)CC2)C1 [Navitoclax] (partner 0.5 µM)
# Outline: as §1
# NPK76-II-72-1 + OSI-027 = compound: CC1CC(=O)N(C2=CN=C(N=C2N1C3CCCC3)NC4=C(C=C(C=C4)C(=O)NC5CCN(CC5)C)OC)C [NPK76-II-72-1] + COc1cccc2cc(-c3nc([C@H]4CC[C@H](C(=O)O)CC4)n4ncnc(N)c34)[nH]c12 [OSI-027] (partner 0.5 µM)
# Outline: as §1
cell line,measurement,setting,value
UMC-11,relative viability,BI-2536 + OSI-027; first compound 0.01 µM,0.5
same,relative viability,BI-2536 + OSI-027; first compound 0.03162 µM,0.27
same,relative viability,BI-2536 + OSI-027; first compound 0.1 µM,0.138
same,relative viability,BI-2536 + OSI-027; first compound 0.3162 µM,0.192
same,relative viability,BI-2536 + OSI-027; first compound 1 µM,0.158
same,relative viability,BI-2536 + Pictilisib; first compound 0.01 µM,0.851
same,relative viability,BI-2536 + Pictilisib; first compound 0.03162 µM,0.647
same,relative viability,BI-2536 + Pictilisib; first compound 0.1 µM,0.11
same,relative viability,BI-2536 + Pictilisib; first compound 0.3162 µM,0.153
same,relative viability,BI-2536 + Pictilisib; first compound 1 µM,0.14
same,relative viability,BI-2536 + Navitoclax; first compound 0.01 µM,0.279
same,relative viability,BI-2536 + Navitoclax; first compound 0.03162 µM,0.286
same,relative viability,BI-2536 + Navitoclax; first compound 0.1 µM,0.166
same,relative viability,BI-2536 + Navitoclax; first compound 0.3162 µM,0.136
same,relative viability,BI-2536 + Navitoclax; first compound 1 µM,0.112
same,relative viability,NPK76-II-72-1 + OSI-027; first compound 0.01 µM,0.435
same,relative viability,NPK76-II-72-1 + OSI-027; first compound 0.03162 µM,0.424
same,relative viability,NPK76-II-72-1 + OSI-027; first compound 0.1 µM,0.521
same,relative viability,NPK76-II-72-1 + OSI-027; first compound 1 µM,0.47

# — the supplement of paper PMC10307832
